Series [1] in a line: in vitro. The settings on record: African green monkey.
The target of series [2] is T1, CYP 1A2 (Homo sapiens, UniProt P05177).
T1 sequence (P05177 1-516): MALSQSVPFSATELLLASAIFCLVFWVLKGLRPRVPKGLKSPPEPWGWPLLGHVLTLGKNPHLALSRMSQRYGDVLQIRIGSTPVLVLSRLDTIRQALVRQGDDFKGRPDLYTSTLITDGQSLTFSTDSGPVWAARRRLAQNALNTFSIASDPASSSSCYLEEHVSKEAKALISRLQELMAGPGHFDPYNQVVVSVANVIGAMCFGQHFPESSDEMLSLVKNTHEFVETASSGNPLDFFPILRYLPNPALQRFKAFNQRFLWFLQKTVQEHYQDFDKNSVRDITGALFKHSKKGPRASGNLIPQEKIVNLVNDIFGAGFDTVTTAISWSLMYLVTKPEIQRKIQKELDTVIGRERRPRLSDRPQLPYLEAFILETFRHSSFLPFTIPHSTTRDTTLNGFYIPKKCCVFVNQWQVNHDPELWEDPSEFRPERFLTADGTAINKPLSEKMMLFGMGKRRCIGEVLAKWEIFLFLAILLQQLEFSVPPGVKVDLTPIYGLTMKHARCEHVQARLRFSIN
The series can be described thus: CYP inhibition assay, 1A2.
Experimental: (§1) The following reagents/reactants were used in the assay: water was purified by ELGA Lab purification systems, buffer solution: PB (100 mM), MgCl2 (33 mM), organic solvents were AR or HPLC grade, CYP substrates: phenacetin (10 µM, 25 µL, 1A2), diclofenac (5 µM, 25 µL, 2C9), S-mephenytoin (30 µM, 75 µL, 2C19), dextromethorphan (5 µM, 12,5, 2D6), and midazolam (2 µM, 10 µL, 3A4), stock solutions were prepared in MeOH (20, 10, 20, 20, and 10 mM, respectively). Positive controls: α-naphthoflavone, sulfaphenazole, (+)-N-3-benzylnirvanol, quinidine, and ketoconazole, final concentration was 3 µM in MeOH (90 µL), stock solutions were prepared in DMSO (3 mM for all the inhibitors). Test compounds were evaluated using five conc. points at the range of 15-5,000 µM. […] Main procedure: working solution (100×) of the test compound and standard inhibitors were prepared, microsomes were pulled out of the -80° C. freezer to thaw on ice, labeled the date and put it back to the freezer immediately after use. Substrates (20 µL) and PB (20 µL) were added to corresponding wells and Blank wells, respectively. […] HLM working solution (158 µL) was added to all wells of the incubation plate. Plate was pre-warmed for about 10 min at 37° C. in a water bath, then NADPH (20 µL) was added to all incubation wells. CYPs were mixed and incubated for 10 min at 37° C. in a water bath. The reaction was terminated at the time point by adding a 400 µL cold stop solution (200 ng/mL tolbutamide and labetalol in ACN). Samples were centrifuged at 4000 rpm for 20 minutes to precipitate protein. Supernatant (200 µL) was transferred to 100 µL HPLC water and shaken for 10 min, then samples were subjected for LC/MS/MS analysis. XL fit was used to plot the percent of vehicle control vs the test compound concentrations, and for non-linear regression analysis of the data. IC50 values were determined using 3- or 4-parameter logistic equations.

The target in series [3] is CYP 2D6 (Homo sapiens, UniProt P10635). The series can be described thus: CYP inhibition assay, 2D6.
Sequence of CYP 2D6 (P10635 whole entry): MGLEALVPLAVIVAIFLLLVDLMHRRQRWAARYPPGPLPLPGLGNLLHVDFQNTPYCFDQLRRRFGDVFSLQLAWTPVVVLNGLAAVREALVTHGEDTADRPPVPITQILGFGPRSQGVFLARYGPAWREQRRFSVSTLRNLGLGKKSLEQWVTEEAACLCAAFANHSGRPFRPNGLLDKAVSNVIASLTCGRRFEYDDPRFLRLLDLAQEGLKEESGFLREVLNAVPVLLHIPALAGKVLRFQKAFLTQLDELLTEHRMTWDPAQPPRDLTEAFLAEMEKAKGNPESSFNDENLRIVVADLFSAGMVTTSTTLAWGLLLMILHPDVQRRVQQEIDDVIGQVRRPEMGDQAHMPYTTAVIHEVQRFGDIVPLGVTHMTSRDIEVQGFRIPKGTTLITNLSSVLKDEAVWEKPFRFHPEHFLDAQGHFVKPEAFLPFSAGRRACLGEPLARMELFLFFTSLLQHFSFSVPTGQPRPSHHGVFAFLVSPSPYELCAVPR
Experimental: as §1
Series [4] in a line: PAMPA permeability assay. Format: in vitro ADME. Particulars: pH 7.4.
Experimental: 2.6 g KH2PO4 and 18.5 g K3PHO4×3H2O were dissolved in 1000 mL of ultra-pure water, mixed thoroughly. The pH was adjusted to 7.40 ± 0.05, using either 1 M sodium hydroxide or 1 M hydrochloric acid. 0.2 mM working solution was prepared by diluting 10 mM stock solution with DMSO. 10 µM donor solution (5% DMSO) was prepared by diluting 20 µL of working solution with 380 µL PBS. 150 µL of 10 µM donor solutions to each well of the donor plate, whose PVDF membrane was precoated with 5 µL of 1% lecithin/dodecane mixture. Duplicates were prepared. 300 µL of PBS was added to each well of the PTFE acceptor plate. The donor plate and acceptor plate were combined together and incubated for 4 h at room temperature with shaking at 300 rpm. […] Preparation of acceptor sample: the plate was removed from the incubator. 270 µL solution was transferred from each acceptor well and mixed with 130 µL ACN (containing internal standard) as acceptor sample. […] Acceptor samples and donor samples were all analyzed by LC-MS/MS.
Series [5] in a line: Plasma stability, mice. The settings on record: mouse. Format: in vitro ADME.
Experimental: (§2) Propantheline bromide was used as a reference compound in this assay. The pooled frozen plasma was thawed in a water bath at 37° C. prior to experiment. Plasma was centrifuged at 4000 rpm for 5 min and the clots were removed if any. The pH will be adjusted to 7.4 ± 0.1 if required.
(§3) Preparation of compounds: 1 mM intermediate solution was prepared by diluting 10 µL of the stock solution with 90 µL DMSO; 1 mM intermediate of positive control Propantheline was prepared by diluting 10 µL of the stock solution with 90 µL ultrapure water. For test compounds, 100 µM dosing solution was prepared by diluting 10 µL of the intermediate solution (1 mM) with 90 µL DMSO. […] 98 µL of blank plasma was spiked with 2 µL of dosing solution (100 µM) to achieve 2 µM of the final concentration in duplicate and samples were Incubated at 37° C. in a water bath. […] Centrifuged sample plates at 4,000 rpm for 10 min. An aliquot of supernatant (50 µL) was transferred from each well and mixed with 100 µL ultra-pure water. The samples were shaken at 800 rpm for about 10 min before submitting to LC-MS/MS analysis. The % remaining of test compound after incubation in plasma was calculated using following equation:
(§4) where PAR is the peak area ratio of analyte versus internal standard (IS).
The test system of series [6] is SARS-CoV-2. Kind of series: In vitro antiviral cell-based assay (live SARS-CoV-2 IFA) in Vero cells. The settings on record: Severe acute respiratory syndrome coronavirus 2, MOI ~0.0125, 24 hpi.
Series [7] concerns the target CYP 3A4 (Homo sapiens, UniProt P08684). The series can be described thus: CYP inhibition assay, 3A4.
Experimental: as §1
The target of series [8] is CYP 2C9 (Homo sapiens, UniProt P11712). Kind of series: biochemical.
Sequence of CYP 2C9 (P11712 whole entry): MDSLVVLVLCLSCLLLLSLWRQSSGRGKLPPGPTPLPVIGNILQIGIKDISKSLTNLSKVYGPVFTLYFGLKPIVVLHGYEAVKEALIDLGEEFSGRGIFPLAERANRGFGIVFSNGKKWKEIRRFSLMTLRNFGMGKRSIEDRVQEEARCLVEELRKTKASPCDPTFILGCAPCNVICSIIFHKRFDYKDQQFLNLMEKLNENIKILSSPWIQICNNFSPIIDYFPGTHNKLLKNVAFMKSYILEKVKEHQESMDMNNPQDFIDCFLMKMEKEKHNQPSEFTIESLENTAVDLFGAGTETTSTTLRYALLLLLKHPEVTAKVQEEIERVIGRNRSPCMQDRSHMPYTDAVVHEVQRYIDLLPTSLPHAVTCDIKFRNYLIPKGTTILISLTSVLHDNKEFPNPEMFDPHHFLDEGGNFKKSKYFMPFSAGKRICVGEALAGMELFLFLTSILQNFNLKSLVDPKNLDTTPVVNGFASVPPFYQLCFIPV
Experimental: as §1
Series [9] deals with CYP 2C19 (Homo sapiens, UniProt P33261). Kind of series: CYP inhibition assay, 2C19.
Sequence of CYP 2C19 (P33261 whole entry): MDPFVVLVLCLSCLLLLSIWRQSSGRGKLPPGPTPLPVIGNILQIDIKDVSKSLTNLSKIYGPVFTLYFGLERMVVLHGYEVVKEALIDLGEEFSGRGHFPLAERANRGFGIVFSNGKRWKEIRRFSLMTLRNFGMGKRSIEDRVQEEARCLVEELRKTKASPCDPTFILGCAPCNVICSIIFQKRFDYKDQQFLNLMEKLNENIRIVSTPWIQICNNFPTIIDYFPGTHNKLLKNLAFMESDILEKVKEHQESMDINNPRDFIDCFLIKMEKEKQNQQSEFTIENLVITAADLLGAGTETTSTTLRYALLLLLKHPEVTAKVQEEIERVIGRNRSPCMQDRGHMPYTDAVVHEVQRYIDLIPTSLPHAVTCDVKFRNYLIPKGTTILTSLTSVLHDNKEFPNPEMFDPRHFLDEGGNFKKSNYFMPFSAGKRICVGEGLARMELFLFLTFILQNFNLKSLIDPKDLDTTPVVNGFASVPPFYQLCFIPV
Experimental: as §1
For series [10] the following is noted: mouse, plasma.
The target of series [11] is SARS-CoV-2 M^PRO (Severe acute respiratory syndrome coronavirus 2, UniProt P0DTD1). Kind of series: biochemical. Format: biochemical. The settings on record: In vitro potency data; 30 min pre-incubation, 25 nM M^pro, 25 µM substrate; read-out: IC50.
The nature of series [12]: Plasma stability, human. It counts as in vitro ADME. Particulars: pH 7.4.
Experimental: as §2, §3, §4
The conditions of series [13]: plasma.
The nature of series [14]: physchem. Particulars: water, kinetic from dmso stock.

The source of these data is patent publication US20230174488A1 (priority 2020, published 2023).

Values after ≈ are worked out from the molar mass of the structure shown.

Sequence of CYP 3A4 (P08684 whole entry): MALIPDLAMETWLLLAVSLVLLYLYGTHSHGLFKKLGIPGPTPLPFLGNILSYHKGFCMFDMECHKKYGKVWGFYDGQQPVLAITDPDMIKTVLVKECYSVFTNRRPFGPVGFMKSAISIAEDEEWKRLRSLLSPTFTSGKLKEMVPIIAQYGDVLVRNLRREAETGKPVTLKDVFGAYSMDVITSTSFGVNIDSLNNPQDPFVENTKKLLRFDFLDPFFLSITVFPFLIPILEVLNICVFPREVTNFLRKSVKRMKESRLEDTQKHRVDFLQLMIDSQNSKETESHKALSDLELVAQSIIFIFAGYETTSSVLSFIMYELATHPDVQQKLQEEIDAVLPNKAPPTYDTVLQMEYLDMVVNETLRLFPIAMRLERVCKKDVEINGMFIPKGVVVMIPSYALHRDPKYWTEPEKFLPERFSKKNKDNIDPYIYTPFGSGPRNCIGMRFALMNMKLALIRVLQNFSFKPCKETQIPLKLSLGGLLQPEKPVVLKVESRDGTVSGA

`O=C(NC1CCC(F)(F)CC1)[C@@H](c1cncnc1)N(C(=O)[C@@H](F)Cl)c1ccc(-c2cncs2)cc1` (single isomer, unassigned) [INSCoV-614(1B), 2-Chloro-N-(2-((4,4-difluorocyclohexyl)amino)-2-oxo-1-(pyrimidin-5-yl)ethyl)-2-fluoro-N-(4-(thiazol-5-yl)phenyl)acetamide] had a CC50 at 24 h in series [1] above 25 µM. In addition, the IC50 was 24.3 µM in series [2]; 6.5 µM in [3]; 1.45 µM in [7]; 15.6 µM in series [8]; 9.5 µM in [9]; 0.06 µM in [11]. In series [4] (4 h, 10 µM), the “PAMPA, Mean Pe” value came out at 0.188 ×10⁻⁶ cm/s. The same compound showed a Papp at 4 h, 10 µM in series [4] of 0.188 ×10⁻⁶ cm/s. For the same compound, the “Stability in plasma (in words)” value in series [5] is on record as “significantly improved stability in plasma”. In addition, the “Plasma stability, T½, min, mice” value in [5] (2 µM, pH 7.4) is above 4.818 h. In addition, the half-life at 2 µM in series [5] (pH 7.4) and in series [12] was above 4.82 h each time. Further, a half-maximal effect in series [6] (EC50) was put at 2.23 µM. For the same compound, in series [10], the “PPB, mice, % Bound” value is reported as 83.78%. The “Plasma stability, T½, min, human” value in series [12] (2 µM) was above 4.818 h. Moreover, the “PPB, human, % Bound” value in series [13] was determined as 70.59%. The compound further came in with a kinetic solubility in series [14] of 164 µM (≈ 85.9 µg/mL).
